Measured values reported in patent publication US4778800A, “3-oxadiazole and 3-carboxylic acid beta-carboline derivatives, and their use as psychotropic agents” (Schering Aktiengesellschaft, priority 1985, dated 1988).
In brackets after ≈: the same amount, converted by molar mass.

Columns and labels:
benzodiazepine receptors = assay: displacement of 3H-flunitrazepam from benzodiazepine receptors in vitro; type: binding; conditions: 3H-flunitrazepam 1.0 nM, 0° C., rat forebrain membranes, pH 7.1
[1] = anticonvulsive action: stopping of spasms induced by pentylenetetrazole (pentazol); type: in vivo; conditions: Mus musculus, ip, 0.5 h; mice, i.p., pentazol 150 mg/kg s.c. 15-30 minutes later; protects 50% of animals from spasms and death (Litchfield and Wilcoxon); read-out: PTZ ED50
Method: In the pharmacological tests, the compounds according to the invention especially show anxiolytic and anticonvulsive effectiveness. For examination of the anticonvulsive action, stopping of spasms induced by pentylenetetrazole (pentazol) was examined. Pentazol is administered subcutaneously in an amount of 150 mg/kg as a hydrochloric acid solution (pH 2-3) 15-30 minutes after the intraperitoneal application of the test substance. This amount induces clonic and tonic spasms which lead to death in untreated animals. The number of mice which show spasms and the number of them that died 30 minutes after pentazol are recorded.
The ED50 values indicated in the table were determined according to the method of Litchfield and Wilcoxon (J. Pharmacol. exp. Ther. 96 (1949) […]) as the amount of antagonistically acting substance which protects 50% of the animals from spasms and death.

benzodiazepine receptor = assay: in vivo displacement of 3H-flunitrazepam binding on the benzodiazepine receptor in live brain; conditions: mice, normally i.p.; 3H-flunitrazepam i.v. after 15 minutes; 50% reduction of specific binding in forebrain

| SMILES | IC50 in vitro (benzodiazepine receptors) | ED50 [1] | ED50 in vivo (benzodiazepine receptor) |
| --- | --- | --- | --- |
| CCOCc1cccc2[nH]c3cnc(C(=O)OCC)c(C)c3c12 [5-CH2 OC2 H5, CH3, COOC2 H5, reference compound] | 0.8 ng/mL (≈ 2.56 nM) | > 100 mg/kg | 1.0 mg/kg |
| CCOC(=O)c1ncc2[nH]c3cccc(COC)c3c2c1C [5-CH2 OCH3, CH3, COOC2 H5, reference compound] | 0.45 ng/mL (≈ 1.51 nM) | > 100 mg/kg | 2.0 mg/kg |
| CCOC(CC)c1cccc2[nH]c3cnc(-c4nc(CC)no4)c(COC)c3c12 (stereo not drawn) [5-CH(C2 H5)OC2 H5, CH2 OCH3, drawing 8] | 0.2 ng/mL (≈ 0.507 nM) | 0.3 mg/kg | 3 mg/kg |
| CCOC(CC)c1cccc2[nH]c3cnc(-c4nc(CC)no4)c(C)c3c12 (stereo not drawn) [5-CH(C2 H5)OC2 H5, CH3, drawing 7, 3-[5-(3-ethyl-1,2,4-oxadiazol)yl]-4-methyl-5-(1-ethoxopropyl)-beta-carboline] | 0.4 ng/mL (≈ 1.1 nM) | 0.6 mg/kg | 3 mg/kg |
| CCOC(C)c1cccc2[nH]c3cnc(-c4nc(CC)no4)c(C)c3c12 (stereo not drawn) [5-CH(CH3)OC2 H5, CH3, drawing 6, 3-[5-(3-ethyl-1,2,4-oxadiazol)yl]-4-methyl-5-(1-ethoxyethyl)-beta-carboline] | 0.3 ng/mL (≈ 0.856 nM) | 0.4 mg/kg | 0.09 mg/kg |
| CCCOC(C)c1cccc2[nH]c3cnc(C(=O)OCC)c(C)c3c12 (stereo not drawn) [5-CH(CH3)OC3 H7, CH3, COOC2 H5, 5-(1-propoxyethyl)-4-methyl-beta-carboline-3-carboxylic acid ethyl ester] | 0.4 ng/mL (≈ 1.18 nM) | 1 mg/kg | 0.6 mg/kg |
| CCCOC(C)c1cccc2[nH]c3cnc(C(=O)OC(C)C)c(C)c3c12 (stereo not drawn) [5-CH(CH3)OC3 H7, CH3, drawing 5] | 0.75 ng/mL (≈ 2.12 nM) | 0.8 mg/kg | 1.8 mg/kg |
| CCOC(C)c1ccc2[nH]c3cnc(-c4nc(CC)no4)c(CC)c3c2c1 (stereo not drawn) [6-CH(CH3)OC2 H5, C2 H5, drawing 9, 3-[5-(3-ethyl-1,2,4-oxadiazol)yl]-4-ethyl-6-(1-ethoxyethyl)-beta-carboline] | 0.7 ng/mL (≈ 1.92 nM) | 2.3 mg/kg | 1.1 mg/kg |
| CCOC(=O)c1ncc2[nH]c3ccc(C(C)OCC(F)(F)F)cc3c2c1C (stereo not drawn) [6-CH(CH3)OCH2 CF3, CH3, COOC2 H5, 4-methyl-6-(1-(2,2,2-trifluoroethoxy)-ethyl)-beta-carboline-3-carboxylic acid ethyl ester] | 0.8 ng/mL (≈ 2.1 nM) | 2.4 mg/kg | 1.8 mg/kg |
| CCOC(=O)c1ncc2[nH]c3ccc(C(C)SCC)cc3c2c1C (stereo not drawn) [6-CH(CH3)SC2 H5, CH3, COOC2 H5, 4-methyl-6-(1-ethylthioethyl)-beta-carboline-3-carboxylic acid ethyl ester] | 1.2 ng/mL (≈ 3.5 nM) | 4 mg/kg | 0.43 mg/kg |
